In patent US6407125B1, “Pharmacological agent and method of treatment” (Novactyl, Inc., priority 1995, dated 2002):

How the values were obtained:
transformed cells = details: cited from earlier work
[1] = Topical treatment of psoriasis; assay type: in vivo, human; details: preliminary information
Source text: Several patients suffering from proliferative skin disorders such as psoriasis have been included in a recent ongoing study of the anti-proliferative effects of topical picolinic acid. […] The patients may be treated with a topical application of approximately 5% to 20% picolinic acid, or a derivative thereof, in an absorption base. Alternatively, the patient may be treated with a solution containing approximately 5% to 20% picolinic acid, or derivative, in deionized water. The topical preparation may be applied twice a day or in an alternative pharmacologically acceptable regimen.

[2] = cited from earlier work
recombinant MPS-1 = recombinant MPS-1 (Homo sapiens, UniProt P42677); assay: Gel shift assay of zinc dependent binding of recombinant MPS-1 to DNA; 65Zn removal from MPS-1; assay type: biochemical
Source text: MPS-1 is a ubiquitous tumor marker and cell growth stimulator and is described in detail in the inventor's U.S. Pat. No. Re.35,585 (U.S. Pat. No. 5,243,041). MPS-1 has one zinc finger domain of the type CCCC. […] This is detected by a change in the electrophoretic mobility of MPS-1 under non-denaturing conditions. These experiments indicate that picolinic acid and derivatives should remove zinc and denature various types of zinc finger or zinc ring proteins, whether known or heretofore undiscovered, including viral proteins such as nucleocapsid p7 proteins, as will be explained further. Furthermore, the inventor has determined that any chemical compound, whether known or heretofore undiscovered, that will remove the zinc (or other metal) and denature the proteins or that will form a ternary complex (protein-zinc-chelator) can be effective as a therapeutic agent or as an autologous immune response modulator, as will be discussed in greater detail below.

metastatic breast cancer = assay: Topical treatment of metastatic breast cancer to skin and bone of the skull; assay type: in vivo, human; details: 10% in Aquaphor, changed twice daily, approximately 35 days
Method: A person with metastatic breast cancer to the skin and bone of the skull was treated with a topical preparation of 10% picolinic acid in Aquaphor. The preparation was applied to the cancerous lesions and to a bandage and changed twice daily. The multiple cancer lesions were approximately 1 to 1.5 cm in diameter.

WI-38 cells = assay: Growth of WI-38 cells (total cell protein, cell number); assay type: cell-based; details: 3 mM picolinic acid
Method: Cells were plated at 1.5×10^5 cells/60-mm dish; 48 hours later, the medium was removed, and new media with or without 3 mM picolinic acid was added. Total cell protein was determined at the indicated times; each point is the average of triplicate measurements from 2 cultures.
In initial experiments to examine the effects of fusaric acid on cell growth and viability, WI-38 and LoVo cells were incubated for 24 to 72 hours in medium with or without various doses of fusaric acid (0.1-1 mM). The growth of both WI-38 and LoVo cells was inhibited by 500 μM fusaric acid in a time and dose dependent manner, as shown below in Table 2.

metastatic colon cancer = assay: Oral treatment of metastatic colon cancer, case; assay type: in vivo, human
Source text: The inventor has determined that systemic administration of picolinic acid or derivatives is effective in controlling various cancers with reduced side effects by mechanisms heretofore unknown or unanticipated. […] The patient's condition improved. Based upon known mechanisms of action, the inventor anticipated that the patient may become anemic due to the concomitant chelation of iron. However, the inventor discovered a completely novel response. Over the course of several weeks, the patent's hematocrit increased. The inventor determined that the increase in hemoglobin along with the clinical improvement, is a result of synergistic mechanisms. First, the chelation of the iron suppressed tumor angiogenesis and induce killer T-cell formation. Furthermore, the chelated iron appears to be actively and usefully transported to bone marrow to support hematopoesis.
The subject is a person with metastatic colon cancer. The subject presented with an enlarged lymph node in the neck. The lymph node was putting pressure on nerves causing a drooping of the subject's right eyelid. […] Treatment was initiated with 500 mg of picolinic acid in capsule form, by mouth twice daily. […] An aspiration needle biopsy of the lymph node was attempted but had to be repeated due to the fact that the pathologist was withdrawing necrotic tissue from the lymph node. […] The protocol includes increasing the dosage up to 2000 mg per day, or more, if required.

For `O=C(O)c1ccccn1` [picolinic acid, 2-Pyridine carboxylic acid], the “cytotoxicity in transformed cells” value (transformed cells) is listed as “cytotoxicity and cell death”, the regression of psoriasis [1] is listed as “significant effect in inducing regression of the psoriasis” and the solubility in water [2] is listed as “readily soluble in water”. For the same molecule, the “removal of radioactive 65Zn from MPS-1” value (recombinant MPS-1; CCCC zinc finger, change in electrophoretic mobility, non-denaturing conditions) was “remove radioactive 65Zn from MPS-1”, the “zinc dependent binding of recombinant MPS-1 to DNA” value (recombinant MPS-1; gel shift assays) was “inhibit the zinc dependent binding of recombinant MPS-1 to DNA” and the cancer lesion outcome (metastatic breast cancer) was “resolved with scar tissue forming”. For the same molecule, the “toxic effects on WI-38 cells” value (WI-38 cells; up to 72 hours of treatment) was “no toxic effects”, the “growth of WI-38 cells” value (WI-38 cells; within 24 hours) was “inhibited” and the “reversibility of growth inhibition” value (WI-38 cells; within 24 hours of removal of the agent) was “reversible”. For the same molecule, the “estimated reduction in mass of cancerous lymph node” value (metastatic colon cancer; 500 mg capsule by mouth twice daily, within 72 hours, palpation) was “over 50%”, the tolerability (metastatic colon cancer; 500 mg picolinic acid twice daily) was “tolerating treatment well” and the hematocrit (metastatic colon cancer; oral picolinic acid, over several weeks) was “increased”.
